Reference: PubChem BioAssay AID588488 (The Scripps Research Institute Molecular Screening Center, 2011)
Calls of active or inactive are those of the source.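 The calls were made as follows: active = inhibition of 50% or more in at least one of the four enzyme panels; inactive = below 50% inhibition in every panel.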

How the values were obtained:
Assay in all cases: PAD1-4 inhibition by cherry-picked hits, late-stage follow-up, selectivity assay for PAD4 inhibitor project, biochemical, colorimetric, BAEE substrate, HTS hits (AID 588488)
[1] = biological target: Protein-arginine deiminase type-3 (Homo sapiens) (UniProt Q9ULW8); details: Recombinant PAD1-4, BAEE citrulline colorimetric absorbance; PAD3; at 10 µM; stronger effect = higher value
Protein-arginine deiminase type-3 (Homo sapiens), sequence (Q9ULW8 whole entry, looked up): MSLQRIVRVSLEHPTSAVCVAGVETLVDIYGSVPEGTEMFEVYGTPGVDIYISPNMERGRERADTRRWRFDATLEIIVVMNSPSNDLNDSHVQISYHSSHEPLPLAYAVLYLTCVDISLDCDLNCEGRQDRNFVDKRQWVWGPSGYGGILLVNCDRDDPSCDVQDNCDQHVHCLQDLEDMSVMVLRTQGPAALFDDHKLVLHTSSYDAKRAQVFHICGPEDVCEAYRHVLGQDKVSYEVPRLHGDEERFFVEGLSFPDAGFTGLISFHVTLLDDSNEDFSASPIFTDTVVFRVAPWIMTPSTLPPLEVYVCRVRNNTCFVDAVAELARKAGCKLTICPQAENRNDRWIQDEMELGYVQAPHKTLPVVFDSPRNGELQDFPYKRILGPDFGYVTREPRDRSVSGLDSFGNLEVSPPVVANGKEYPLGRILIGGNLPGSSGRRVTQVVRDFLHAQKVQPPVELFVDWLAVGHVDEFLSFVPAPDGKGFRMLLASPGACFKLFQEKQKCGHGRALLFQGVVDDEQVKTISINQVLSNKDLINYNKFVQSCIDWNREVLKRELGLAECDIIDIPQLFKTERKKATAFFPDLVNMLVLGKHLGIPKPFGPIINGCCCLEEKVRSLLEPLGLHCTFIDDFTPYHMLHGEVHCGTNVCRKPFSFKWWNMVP

[2] = biological target: Protein-arginine deiminase type-4 (Homo sapiens) (UniProt Q9UM07); details: Recombinant PAD1-4, BAEE citrulline colorimetric absorbance; PAD4; at 10 µM; stronger effect = higher value
Protein-arginine deiminase type-4 (Homo sapiens), sequence (Q9UM07 whole entry, looked up): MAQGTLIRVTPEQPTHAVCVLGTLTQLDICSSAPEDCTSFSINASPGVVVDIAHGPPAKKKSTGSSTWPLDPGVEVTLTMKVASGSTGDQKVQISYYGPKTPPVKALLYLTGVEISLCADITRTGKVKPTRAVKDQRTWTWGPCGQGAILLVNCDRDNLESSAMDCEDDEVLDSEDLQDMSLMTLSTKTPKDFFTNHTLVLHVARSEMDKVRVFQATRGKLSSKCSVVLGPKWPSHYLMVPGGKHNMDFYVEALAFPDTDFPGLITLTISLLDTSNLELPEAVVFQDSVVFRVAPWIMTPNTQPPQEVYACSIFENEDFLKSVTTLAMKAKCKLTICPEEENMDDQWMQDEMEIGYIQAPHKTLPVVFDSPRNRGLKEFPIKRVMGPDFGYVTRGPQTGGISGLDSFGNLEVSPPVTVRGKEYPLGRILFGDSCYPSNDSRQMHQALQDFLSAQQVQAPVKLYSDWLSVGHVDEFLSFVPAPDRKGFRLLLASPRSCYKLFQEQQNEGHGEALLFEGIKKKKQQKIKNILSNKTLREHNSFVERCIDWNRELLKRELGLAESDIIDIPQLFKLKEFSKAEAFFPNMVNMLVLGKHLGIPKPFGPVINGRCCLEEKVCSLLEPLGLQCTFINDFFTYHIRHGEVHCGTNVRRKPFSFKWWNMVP

[3] = biological target: Protein-arginine deiminase type-2 (Homo sapiens) (UniProt Q9Y2J8); details: Recombinant PAD1-4, BAEE citrulline colorimetric absorbance; PAD2; at 10 µM; stronger effect = higher value
Protein-arginine deiminase type-2 (Homo sapiens), sequence (Q9Y2J8 whole entry, looked up): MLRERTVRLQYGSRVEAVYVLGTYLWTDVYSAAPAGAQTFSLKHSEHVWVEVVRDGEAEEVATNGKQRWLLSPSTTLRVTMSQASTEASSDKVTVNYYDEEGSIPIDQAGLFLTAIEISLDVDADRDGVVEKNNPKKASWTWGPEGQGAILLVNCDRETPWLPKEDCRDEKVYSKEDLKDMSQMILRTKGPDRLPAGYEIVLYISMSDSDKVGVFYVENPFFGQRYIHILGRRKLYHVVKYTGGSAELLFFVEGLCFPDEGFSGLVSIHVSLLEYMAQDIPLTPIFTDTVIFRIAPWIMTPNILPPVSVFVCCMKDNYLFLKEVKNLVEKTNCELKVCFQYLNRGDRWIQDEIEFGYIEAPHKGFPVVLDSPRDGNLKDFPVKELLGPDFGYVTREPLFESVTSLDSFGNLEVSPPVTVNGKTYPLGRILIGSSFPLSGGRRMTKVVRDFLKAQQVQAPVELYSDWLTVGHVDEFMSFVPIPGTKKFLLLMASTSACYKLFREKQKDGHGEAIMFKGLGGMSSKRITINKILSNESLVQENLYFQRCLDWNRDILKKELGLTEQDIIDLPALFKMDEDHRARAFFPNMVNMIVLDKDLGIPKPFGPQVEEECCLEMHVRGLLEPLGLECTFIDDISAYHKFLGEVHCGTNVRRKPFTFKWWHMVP

[4] = biological target: Protein-arginine deiminase type-1 (Homo sapiens) (UniProt Q9ULC6); details: Recombinant PAD1-4, BAEE citrulline colorimetric absorbance; PAD1; at 10 µM; stronger effect = higher value
Protein-arginine deiminase type-1 (Homo sapiens), sequence (Q9ULC6 whole entry, looked up): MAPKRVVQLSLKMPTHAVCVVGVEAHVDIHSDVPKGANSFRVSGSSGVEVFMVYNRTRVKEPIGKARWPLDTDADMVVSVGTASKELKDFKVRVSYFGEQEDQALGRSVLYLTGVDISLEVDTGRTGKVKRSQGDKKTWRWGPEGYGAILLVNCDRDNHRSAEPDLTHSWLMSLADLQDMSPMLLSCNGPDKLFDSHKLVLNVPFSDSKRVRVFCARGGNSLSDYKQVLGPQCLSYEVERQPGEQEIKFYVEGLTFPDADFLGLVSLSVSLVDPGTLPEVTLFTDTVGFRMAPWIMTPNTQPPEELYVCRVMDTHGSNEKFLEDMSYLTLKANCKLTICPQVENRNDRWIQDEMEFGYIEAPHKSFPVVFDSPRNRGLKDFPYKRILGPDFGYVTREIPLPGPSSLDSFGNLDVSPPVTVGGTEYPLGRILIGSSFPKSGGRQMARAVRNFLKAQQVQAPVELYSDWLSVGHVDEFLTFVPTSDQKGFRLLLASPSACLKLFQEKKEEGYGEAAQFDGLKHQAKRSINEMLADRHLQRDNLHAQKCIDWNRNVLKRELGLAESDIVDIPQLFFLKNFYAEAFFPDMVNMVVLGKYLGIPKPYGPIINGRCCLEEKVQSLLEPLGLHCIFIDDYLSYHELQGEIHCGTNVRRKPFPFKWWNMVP

Measured: inhibition

Cc1c(NC(=O)CSc2nccn2C)c(=O)n(-c2ccccc2)n1C
inactive: [1] -18% | [2] 0% | [3] 3% | [4] 22%

Cc1cc(N(C)NC(=S)Nc2ccccc2)nc(C)n1
inactive: [1] -6% | [2] 1% | [3] 17% | [4] 5%

COC(=O)c1cc(C)nc(Sc2ccccc2N)n1
inactive: [1] -14% | [2] 6% | [3] 15% | [4] 10%

Cc1nn(-c2cccc(Cl)c2)c2c1C(c1cccnc1)C(C#N)=C(N)O2 (configuration not stated)
inactive: [1] -4% | [2] 1% | [3] 7% | [4] -3%

COc1cccc(NC(=O)C2c3cc(OC)c(OC)cc3C(=O)N(C)C2c2cccnc2)c1 (configuration not stated)
inactive: [1] -3% | [2] 8% | [3] 26% | [4] 5%

Cn1c(=O)c2c(ncn2CC(=O)Nc2nc(-c3ccccc3Cl)cs2)n(C)c1=O
inactive: [1] 3% | [2] 25% | [3] 45% | [4] 8%

CCN(CC)c1cccc(OC2=NS(=O)(=O)c3ccccc32)c1
inactive: [1] 6% | [2] 16% | [3] 18% | [4] 3%

Cc1ccc(C2CC(=O)Oc3cc(O)ccc32)cc1 (configuration not stated)
inactive: [1] -3% | [2] 12% | [3] 17% | [4] 7%

COc1ccc(-c2cc(=O)[nH][nH]2)cc1
inactive: [1] 3% | [2] 20% | [3] 26% | [4] 14%

COc1ccc(C2C(C#N)=C(N)N(N(C)C)C3=C2C(=O)CCC3)cc1 (configuration not stated)
inactive: [1] -1% | [2] 21% | [3] 7% | [4] 9%

O=c1cc(-c2ccc(Cl)cc2)[nH][nH]1
inactive: [1] -4% | [2] 4% | [3] -6% | [4] 1%

COc1ccc(CCNC(=O)COC(=O)c2ccc(C)s2)cc1
inactive: [1] -24% | [2] 3% | [3] 9% | [4] 5%

Cc1cc(-c2nnc(SCC(=O)Nc3ccc(F)c(F)c3)n2N)n[nH]1
inactive: [1] -7% | [2] -1% | [3] 6% | [4] 1%

CCOc1nc(Nc2ccc(OC)cc2OC)nc(OCC)n1
inactive: [1] -2% | [2] 9% | [3] 12% | [4] 27%

Cc1cc2ncn(-c3ncccc3[N+](=O)[O-])c2cc1C
inactive: [1] 8% | [2] 24% | [3] -8% | [4] 25%

COc1cccc2cc(C(=O)NC3CC(C)(C)NC(C)(C)C3)c(=O)oc12
inactive: [1] -2% | [2] 17% | [3] 3% | [4] -2%

N#CCCn1[nH]c(-c2ccccc2)cc1=O
inactive: [1] -12% | [2] 28% | [3] 39% | [4] 3%

S=C(NCc1ccco1)Nc1cccc(Cl)c1
inactive: [1] -2% | [2] 11% | [3] 13% | [4] 17%

CN(C)CCN(Cc1ccccc1)c1ccccn1
inactive: [1] -9% | [2] 6% | [3] 22% | [4] -7%

Cc1nonc1OC(C)CNc1ccc([N+](=O)[O-])cc1 (configuration not stated)
inactive: [1] 7% | [2] 12% | [3] 27% | [4] 8%

O=C(NCC1CCCO1)c1cc2c([nH]c3ccccc32)c(-c2ccc(F)cc2)n1 (configuration not stated)
inactive: [1] -2% | [2] -3% | [3] 20% | [4] 5%

Cc1nn(-c2ccccc2)c(C)c1NC(=O)COc1ccc(Cl)cc1Cl
inactive: [1] -3% | [2] 16% | [3] 17% | [4] 2%

CCN(CC)S(=O)(=O)c1ccc(N=NC2=C(O)CCCC2=O)cc1
inactive: [1] 17% | [2] 10% | [3] 15% | [4] 0%

Cc1ccc(CNC(=O)c2ccc(C)c(S(=O)(=O)N3CCCCC3)c2)cc1
inactive: [1] -2% | [2] 13% | [3] 15% | [4] 21%

CC(NC(=O)Nc1ccc(O)cc1)(C(F)(F)F)C(F)(F)F
inactive: [1] -11% | [2] 14% | [3] -10% | [4] 8%

CN(C)CCCNc1cn[nH]c(=O)c1Cl
inactive: [1] 2% | [2] 42% | [3] 20% | [4] 27%

COc1ccc(S(=O)(=O)Nc2ccccc2C)cc1
inactive: [1] -3% | [2] 18% | [3] 14% | [4] 31%

Cc1c(C(=O)N2CCCCC2)c(S(=O)(=O)N2CCN(c3ccc(Cl)cc3)CC2)c(C)n1C
inactive: [1] -6% | [2] 15% | [3] 4% | [4] 6%

CC(=O)N(Cc1cc(=O)[nH]c2ccccc12)c1cccc(C)c1
inactive: [1] -3% | [2] 16% | [3] 21% | [4] 4%

COc1cccc(/C=C2/CN(C)CC3=C2OC(N)=C(C#N)C3c2cccc(OC)c2)c1 (configuration not stated)
inactive: [1] -20% | [2] 20% | [3] 20% | [4] 18%

N#CCCN(C(=O)Cn1nc(C(=O)O)c2ccccc2c1=O)c1ccccc1
inactive: [1] -12% | [2] 17% | [3] 10% | [4] 13%

COc1cccc(NC(=O)CN(C)C(=O)C23CC4CC(CC(Cl)(C4)C2)C3)c1
inactive: [1] -3% | [2] 26% | [3] 20% | [4] 6%

Cc1oc2c(C)c(O)ccc2c(=O)c1-c1ccc2ccccc2n1
inactive: [1] -19% | [2] 18% | [3] 9% | [4] 17%
